Active and inactive are the calls of the source. No cut-off for these calls is given here.

Experimental findings from ChEMBL document CHEMBL3763061, “Inhibition of cancer cell invasion by new ((3,4-dihydroxy benzylidene)hydrazinyl)pyridine-3-sulfonamide analogs” (2016) are described below.

The test system of experiment [1] is MDA-MB-231. In words: Cytotoxicity against human MDA-MB-231 cells assessed as growth inhibition at 10 uM after 24 hrs by MTT assay relative to control. The conditions noted are these: MDA-MB-231, 24 h, read-out: GI. Type of experiment: functional.
The subject of experiment [2] is A-375. The experiment is described as follows: Cytotoxicity against human A375 cells assessed as growth inhibition at 10 uM after 24 hrs by MTT assay relative to control. Type of experiment: functional. The conditions noted are these: A-375, 24 h, read-out: GI. On the technique in general: Tetrazolium assays rely on reduction of a dye to a coloured formazan, in cell work by metabolically active cells.

Experiment [3] deals with MDA-MB-231. In words: Inhibition of vimentin expression in human MDA-MB-231 cells. It counts as functional, cell-based.
In experiment [4] the test system is A-375. The experiment is described as follows: Antiinvasive activity against human A375 cells assessed as inhibition of tumor invasion by transwell invasion assay. Type of experiment: functional, cell-based.
For experiment [5], the system named is MDA-MB-231. In words: Inhibition of alpha-smooth muscle actin expression in human MDA-MB-231 cells. Type of experiment: functional, cell-based.
For experiment [6], the system named is A-375. In words: Inhibition of fibronectin expression in human A375 cells. It counts as functional, cell-based.
In experiment [7] the test system is MDA-MB-231. The experiment is described as follows: Inhibition of fibronectin expression in human MDA-MB-231 cells. It counts as functional, cell-based.
For experiment [8], the system named is A-375. In words: Inhibition of collagen expression in human A375 cells. Type of experiment: functional, cell-based.
Experiment [9] deals with MDA-MB-231. The experiment is described as follows: Inhibition of collagen expression in human MDA-MB-231 cells. Type of experiment: functional, cell-based.
Experiment [10] relates to A-375. The experiment is described as follows: Inhibition of Rab27a expression in human A375 cells. Type of experiment: functional, cell-based.
Experiment [11] concerns MDA-MB-231. In words: Antimigratory activity against human MDA-MB-231 cells assessed as density of migrated cells in scratched areas by wound scratch assay. Type of experiment: functional, cell-based.
Experiment [12] concerns MDA-MB-231. In words: Inhibition of N-cadherin expression in human MDA-MB-231 cells. It counts as functional, cell-based.
The test system of experiment [13] is MDA-MB-231. The experiment is described as follows: Inhibition of Rab27a expression in human MDA-MB-231 cells. It counts as functional, cell-based.
For experiment [14], the system named is A-375. In words: Inhibition of N-cadherin expression in human A375 cells. Type of experiment: functional, cell-based.
Experiment [15] concerns A-375. The experiment is described as follows: Inhibition of vimentin expression in human A375 cells. Type of experiment: functional, cell-based.
Experiment [16] has as its system A-375. The experiment is described as follows: Antimigratory activity against human A375 cells assessed as inhibition of cell migration by wound scratch assay. It counts as functional, cell-based.
Experiment [17] has as its system A-375. The experiment is described as follows: Inhibition of alpha-smooth muscle actin expression in human A375 cells. It counts as functional, cell-based.
Experiment [18] has as its system MDA-MB-231. The experiment is described as follows: Antiinvasive activity against human MDA-MB-231 assessed as inhibition of tumor invasion cells by transwell invasion assay. It counts as functional, cell-based.

For the compound `O=S(=O)(Nc1cc(Cl)ccc1O)c1ccc(N/N=C/c2ccc(O)c(O)c2)nc1`, the inhibition of growth at 10 µM in experiment [1] was 7.47%; in [2], -3.03%.
On to `O=S(=O)(NCc1cccc2ccccc12)c1ccc(N/N=C/c2ccc(O)c(O)c2)nc1`, for which the inhibition of growth at 10 µM is -21% in [1] and -13.8% in [2].
Consider `CN(Cc1ccccc1)S(=O)(=O)c1ccc(N/N=C/c2ccc(O)c(O)c2)nc1`, for which the inhibition result in experiment [3], in [4], in experiment [5], in experiment [6], in experiment [7] and in experiment [8] was “Active” each time. For the same compound, the inhibition result in experiment [9], in experiment [10], in experiment [12], in experiment [13], in [14] and in experiment [15] was “Active” in each case. Besides, the inhibition entry in experiment [16], in experiment [17] and in experiment [18] was “Active” each time. The inhibition of growth at 10 µM is 24.6% in experiment [1] and 49.4% in experiment [2]. The outcome in experiment [11] was Active.
In the case of `C[C@@H](NS(=O)(=O)c1ccc(N/N=C/c2ccc(O)c(O)c2)nc1)C1CCCCC1`, the inhibition of growth at 10 µM was -25.8% in [1] and 3.45% in experiment [2].
With `O=S(=O)(c1ccc(N/N=C/c2ccc(O)c(O)c2)nc1)N1CCCC1`, the results for the inhibition of growth at 10 µM in experiment [1] and in experiment [2] were -13.6% and -2.01%, respectively. The result in experiment [11] was Active.
`O=S(=O)(Nc1cccc(Cl)c1)c1ccc(N/N=C/c2ccc(O)c(O)c2)nc1`: the inhibition entry in [3], in experiment [4], in experiment [10], in experiment [12], in [13] and in experiment [14] was “Active” each time. The inhibition entry in experiment [15], in experiment [16] and in [18] was “Active” in each case. In addition, the inhibition result in experiment [5], in experiment [6], in [7], in experiment [8], in [9] and in [17] was “inactive” throughout. The inhibition of growth at 10 µM in experiment [1] is 26.3%; in experiment [2], 71.7%. Besides, in [11], the outcome was Active.
Regarding `CCOC(=O)CN(C)S(=O)(=O)c1ccc(N/N=C/c2ccc(O)c(O)c2)nc1`, the values for the inhibition of growth at 10 µM in experiment [1] and in experiment [2] were 0.97% and -13.7%, respectively.
In the same order, the values of `CN(C)S(=O)(=O)c1ccc(N/N=C/c2ccc(O)c(O)c2)nc1` are 4.81% and 1.44%.
On to `CN1CCN(S(=O)(=O)c2ccc(N/N=C/c3ccc(O)c(O)c3)nc2)CC1`, for which the inhibition of growth at 10 µM in [1] was 2.1%; in experiment [2], 1.29%.
In the same order, the values of `COCCNS(=O)(=O)c1ccc(N/N=C/c2ccc(O)c(O)c2)nc1` are -9.95% and -11.4%.
In the same order, the values of `O=S(=O)(Nc1ccc(O)cc1)c1ccc(N/N=C/c2ccc(O)c(O)c2)nc1` are -1.92% and -15.1%.
With `O=S(=O)(c1ccc(N/N=C/c2ccc(O)c(O)c2)nc1)N1CCc2ccccc2C1`, the inhibition result in experiment [3] and in [15] was “Active” throughout. For the same compound, the inhibition entry in [4], in experiment [5], in experiment [6], in experiment [7], in [8] and in experiment [9] was “inactive” each time. The inhibition result in experiment [12], in [14], in experiment [16], in [17] and in experiment [18] was “inactive” in each case. The inhibition of growth at 10 µM was determined as 14.9% in experiment [1] and 8.41% in experiment [2]. Moreover, in experiment [11], the outcome was inactive.
`O=S(=O)(c1ccc(N/N=C/c2ccc(O)c(O)c2)nc1)N1CCCCC1`: the inhibition of growth at 10 µM is -15.6% in experiment [1] and 5.06% in experiment [2]. In experiment [11], the outcome was Active.
Turning to `O=S(=O)(c1ccc(N/N=C/c2ccc(O)c(O)c2)nc1)N1CCC(O)CC1`, the inhibition of growth at 10 µM in experiment [1] is -15.8%; in experiment [2], -14.1%.
In the same order, the values of `O=S(=O)(c1ccc(N/N=C/c2ccc(O)c(O)c2)nc1)N1CCOCC1` are -5.98% and -9.25%.
